Assay results: US20240262830A1, “IRE1A MODULATORS AND USES THEREOF” (Nimbus Iaso, Inc., priority 2020, published 2024)

What was measured:
[1] = biological target: T1, truncated human IRE1a WT protein, containing the catalytic part (aa 547-977) (Homo sapiens, UniProt O75460); experiment: IRE1a biochemical enzyme splice assay; conditions: 20 nM protein, 500 nM fluorescently quenched IRE1a substrate, 40 min at room temperature; read-out: EnzymeSplice_hIRE1a_IC50 (IC50)
T1 construct: containing the catalytic part (aa 547-977); made in house
T1 sequence (O75460 547-977): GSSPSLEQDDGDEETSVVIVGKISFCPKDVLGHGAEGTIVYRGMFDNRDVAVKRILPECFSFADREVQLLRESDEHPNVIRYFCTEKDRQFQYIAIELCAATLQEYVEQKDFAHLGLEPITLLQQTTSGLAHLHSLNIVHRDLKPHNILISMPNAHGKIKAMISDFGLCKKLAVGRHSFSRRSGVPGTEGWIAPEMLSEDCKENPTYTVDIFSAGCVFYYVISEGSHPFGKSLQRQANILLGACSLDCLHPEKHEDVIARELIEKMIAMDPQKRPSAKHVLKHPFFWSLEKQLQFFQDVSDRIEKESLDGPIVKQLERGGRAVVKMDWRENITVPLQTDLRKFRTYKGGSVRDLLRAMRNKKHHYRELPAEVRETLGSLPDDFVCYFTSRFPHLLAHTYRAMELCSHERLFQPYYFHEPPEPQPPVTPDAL
Description: A truncated human IRE1a WT protein, containing the catalytic part (aa 547-977) was expressed in baculovirus. The purified protein (20 nM) was incubated with a fluorescently quenched IRE1a substrate (500 nM; 5′/6-FAM-CAGUCCGCAGCACUG-BHQ-1/3′) and a titration of inhibitor, starting at 10 μM (final DMSO concentration=1%) for 40 min at room temperature in assay buffer. Reactions were carried out in a final volume of […] in a 384 well assay plate. The reaction was stopped, and the plate was spun for 1 minute at 1000 rpm. The fluorescence intensity of the IRE1a-substrate was measured using an fluorescent plate reader (Ex 485 nm/Em 535 nm, Perkin Elmer Envision).

hIRE1a = experiment: XBP1-Luc cell assay; type: cell-based; conditions: Homo sapiens; HEK293-pLVX-XBP1.fluc-IRES-Puro cells, 600 nM Thapsigargin 1 hour, then inhibitor 6 hours; read-out: fLuc_XBP1_hIRE1a_HEK293_IC50 (IC50)
Description: HEK293-pLVX-XBP1.fluc-IRES-Puro cells (ChemPartner) were collected into DMEM (Invitrogen, 11995-065) with 10% FBS (BI, 04-002-1A). Cells were seeded at 1.5E4 cells/well in BioCoat Poly-D-Lysine Black/Clear flat bottom 96 well plate (Corning, 356640) and incubated overnight at 37° C. and 5% CO2. Cells were treated with 600 nM Thapsigargin (Sigma, T9033) for 1 hour at 37° C. and 5% CO2 prior to inhibitor addition. A titration of inhibitor, starting at 30 μM was added to wells for an additional 6 hours at 37° C. and 5% CO2. 100 μl of Steady-Glo Luciferase assay reagent (Promega, E2550) was added to plate and the plate was shaken for 2 minutes. Signal was read using EnSpire (Perkin Elmer).

| IC50 [1] | IC50 (hIRE1a) | SMILES |
| --- | --- | --- |
| 100 to 1000 nM | 1000 to 10000 nM | CCc1cc(-c2ccc3c(NC[C@H](O)CC)ncnn23)cc2cnc(N[C@H]3CCCNC3)nc12 [Compound I-20, (R)-1-((7-(8-ethyl-2-(((S)-piperidin-3-yl)amino)quinazolin-6-yl)pyrrolo[2,1-f][1,2,4]triazin-4-yl)amino)butan-2-ol] |
| < 100 nM | < 1000 nM | CCc1cc(-c2ccc3c(NS(=O)(=O)Cc4cccc(F)c4F)ncnn23)cc2cnc(N[C@H]3CCCNC3)nc12 [Compound I-21, (S)-1-(2,3-difluorophenyl)-N-(7-(8-ethyl-2-(piperidin-3-ylamino)quinazolin-6-yl)pyrrolo[2,1-f][1,2,4]triazin-4-yl)methanesulfonamide] |
| < 100 nM | < 1000 nM | CCCS(=O)(=O)Nc1ncnn2c(-c3cc(CC)c4nc(N[C@H]5CCCNC5)ncc4c3)ccc12 [Compound I-33, (S)—N-(7-(8-ethyl-2-(piperidin-3-ylamino)quinazolin-6-yl)pyrrolo[2,1-f][1,2,4]triazin-4-yl)propane-1-sulfonamide] |
| < 100 nM | < 1000 nM | CCc1cc(-c2n[nH]c3c(NS(=O)(=O)c4ccccc4Cl)cccc23)cc2cnc(N[C@H]3CCCNC3)nc12 [Compound I-19, (S)-2-chloro-N-(3-(8-ethyl-2-(piperidin-3-ylamino)quinazolin-6-yl)-1H-indazol-7-yl)benzenesulfonamide] |

Second part, the molecule before the results:

| SMILES | IC50 [1] | IC50 (hIRE1a) |
| --- | --- | --- |
| CCc1cc(-c2ccc3c(NS(=O)(=O)c4ccccc4C)ncnn23)cc2cnc(N[C@H]3CCCNC3)nc12 [Compound I-2, (S)—N-(7-(8-ethyl-2-(piperidin-3-ylamino)quinazolin-6-yl)pyrrolo[2,1-f][1,2,4]triazin-4-yl)-2-methylbenzenesulfonamide] | < 100 nM | < 1000 nM |
| CCc1cc(-c2cnc3c(NS(=O)(=O)c4ccccc4Cl)nccn23)cc2cnc(N[C@H]3CCCNC3)nc12 [Compound I-6, (S)-2-chloro-N-(3-(8-ethyl-2-(piperidin-3-ylamino)quinazolin-6-yl)imidazo[1,2-a]pyrazin-8-yl)benzenesulfonamide] | < 100 nM | < 1000 nM |
| CCc1cc(-c2ccc3c(NS(=O)(=O)CCC(F)(F)F)ncnn23)cc2cnc(N[C@H]3CCCNC3)nc12 [Compound I-9, (S)—N-(7-(8-ethyl-2-(piperidin-3-ylamino)quinazolin-6-yl)pyrrolo[2,1-f][1,2,4]triazin-4-yl)-3,3,3-trifluoropropane-1-sulfonamide] | < 100 nM | 1000 to 10000 nM |
| CCc1cc(-c2ccc3c(NS(=O)(=O)C4CCCCC4)ncnn23)cc2cnc(N[C@H]3CCCNC3)nc12 [Compound I-3, (S)—N-(7-(8-ethyl-2-(piperidin-3-ylamino)quinazolin-6-yl)pyrrolo[2,1-f][1,2,4]triazin-4-yl)cyclohexanesulfonamide] | < 100 nM | < 1000 nM |
